# Experimental data taken from patent publication US20240158446A1, “CYCLIC COMPOUND HAVING SELECTIVE INHIBITORY ACTION ON KRAS OVER HRAS AND NRAS” (CHUGAI SEIYAKU KABUSHIKI KAISHA, priority 2021, published 2024).
# Read-outs that look alike come from different tables or passages of the source.
# Experiments:
# [1] = target: GDP-bound HRAS wild-type protein (Homo sapiens, UniProt P01112); experiment: Binding to HRAS by surface plasmon resonance (SPR), Single Cycle Kinetics; conditions: for HRAS/KRAS (ratio of KD value with respect to GDP-bound HRAS wild-type protein to KD value with respect to KRAS): SPR KD ratio HRAS/KRAS, class symbols
# [2] = target: GDP-bound KRAS wild-type protein (Homo sapiens, UniProt P01116); experiment: Binding to KRAS by surface plasmon resonance (SPR), Single Cycle Kinetics; conditions: GDP-bound KRAS wild-type protein, read-out: KRAS KD
# [3] = target: GDP-bound NRAS wild-type protein (Homo sapiens, UniProt P01111); experiment: Binding to NRAS by surface plasmon resonance (SPR), Single Cycle Kinetics; conditions: for NRAS/KRAS (ratio of KD value with respect to GDP-bound NRAS wild-type protein to KD value with respect to KRAS): SPR KD ratio NRAS/KRAS, class symbols
# [4] = test system: human lung cancer strain NCI-H441;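 further: cell proliferation inhibition after four days measured by CellTiter-Glo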
# [5] = SPR, GDP-bound HRAS wild-type protein vs GDP-bound KRAS wild-type protein
# [6] = SPR Single Cycle Kinetics, 1:1 binding model
# [7] = SPR, GDP-bound NRAS wild-type protein vs GDP-bound KRAS wild-type protein
# Chain of GDP-bound NRAS wild-type protein (P01111 whole entry): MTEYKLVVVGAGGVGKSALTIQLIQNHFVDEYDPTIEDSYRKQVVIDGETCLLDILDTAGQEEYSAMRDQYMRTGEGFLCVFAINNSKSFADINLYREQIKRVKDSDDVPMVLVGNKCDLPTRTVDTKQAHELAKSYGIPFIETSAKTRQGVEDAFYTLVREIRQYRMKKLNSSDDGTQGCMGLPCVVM
# Chain of GDP-bound HRAS wild-type protein (P01112 whole entry): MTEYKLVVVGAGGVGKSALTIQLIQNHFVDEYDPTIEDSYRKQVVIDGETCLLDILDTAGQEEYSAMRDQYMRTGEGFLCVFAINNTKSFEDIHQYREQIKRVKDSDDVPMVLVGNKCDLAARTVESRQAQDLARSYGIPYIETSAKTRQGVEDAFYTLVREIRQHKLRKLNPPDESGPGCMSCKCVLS
# Chain of GDP-bound KRAS wild-type protein (P01116 whole entry): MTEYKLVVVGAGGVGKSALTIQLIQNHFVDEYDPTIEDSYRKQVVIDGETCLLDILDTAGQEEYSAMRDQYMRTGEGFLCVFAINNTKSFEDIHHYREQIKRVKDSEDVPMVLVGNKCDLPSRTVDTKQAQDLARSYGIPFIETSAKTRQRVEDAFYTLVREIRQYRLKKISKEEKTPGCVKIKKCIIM
Structure (SMILES),"Kd ([2]; SPR, Single Cycle Kinetics)","Kd [2, 6]",IC50 [4],HRAS/KRAS (ratio of KD value with respect to GDP-bound HRAS wild-type protein to KD value with respect to KRAS) [1],NRAS/KRAS (ratio of KD value with respect to GDP-bound NRAS wild-type protein to KD value with respect to KRAS) [3],"HRAS/KRAS (ratio of KD value for HRAS to KD value for KRAS) [1, 5]","NRAS/KRAS (ratio of KD value for NRAS to KD value for KRAS) [3, 7]",also measured
CC[C@H](C)[C@@H]1NC(=O)[C@H](CC(C)C)N(C)C(=O)C[C@@H](C(=O)N(C)C)N(C)C(=O)[C@H](C2CCCC2)N(C)C(=O)C2(CCC2)N(C)C(=O)[C@@H]2CCCN2C(=O)[C@H](CCc2cc(F)c(C(F)(F)F)c(F)c2)NC(=O)CN(C)C(=O)[C@H](Cc2ccc(C)cc2)N2CC/C=C\C[C@@H](C2=O)N(C)C(=O)CN(C)C1=O [PP1791],0.042 nM,–,–,–,–,–,–,"HRAS/KRAS (KD ratio) ([1]; ratio of KD for GDP-bound HRAS wild-type protein to KD for KRAS, SPR): A (a compound having 10 or more and less than 20 is denoted as A); NRAS/KRAS (KD ratio) ([3]; ratio of KD for GDP-bound NRAS wild-type protein to KD for KRAS, SPR): A (a compound having 10 or more and less than 20 is denoted as A); IC50 ([4]; read-out: NCI-H441 IC50, NCI-H441 cell proliferation, 4 days, CellTiter-Glo): 3.7 nM"
CCO[C@@H]1C[C@H]2C(=O)NC3(CC(C)(C)C3)C(=O)N(C)[C@@H](CC(C)(C)C)C(=O)N(C)[C@H](C(=O)N(C)C)CC(=O)N(C)[C@@H](COC)C(=O)N[C@@H]([C@@H](C)CC)C(=O)N(C3CC3)CC(=O)N(C)[C@H]3C/C=C\CCN(C3=O)[C@@H](Cc3ccc(C(F)(F)F)cc3)C(=O)N(C)CC(=O)N[C@@H](CCc3ccc(C(F)(F)F)c(OC)c3)C(=O)N2C1 [PP2748],–,0.2 nM,7.1 nM,A (a compound having 10 or more and less than 20 is denoted as A),A (a compound having 10 or more and less than 20 is denoted as A),–,–,–
CCO[C@@H]1C[C@H]2C(=O)NC3(CC(C)(C)C3)C(=O)N(C)[C@@H](C(CC)CC)C(=O)N(C)[C@H](C(=O)N(C)C)CC(=O)N(C)[C@@H](C(C)C)C(=O)N[C@@H]([C@@H](C)CC)C(=O)N(C)CC(=O)N(C)[C@H]3C/C=C\CCN(C3=O)[C@@H](CC3CCC(F)(F)CC3)C(=O)N(C)CC(=O)N[C@@H](CCc3cc(F)c(C(F)(F)F)c(F)c3)C(=O)N2C1 [PP2481],1.6 nM,–,33.6 nM,–,–,A (a compound having 10 or more and less than 20 is denoted as A),A (a compound having 10 or more and less than 20 is denoted as A),–
CCCOC[C@H]1C(=O)N[C@@H]([C@@H](C)CC)C(=O)N2CCC[C@H]2C(=O)N(C)[C@H]2C/C=C\CCN(C2=O)[C@@H](CC2CCC(F)(F)CC2)C(=O)N(C)CC(=O)N[C@@H](CCc2ccc(C(F)(F)F)c(OC)c2)C(=O)N2C[C@H](OCC)C[C@H]2C(=O)N(C)C2(CCC2)C(=O)N(C)[C@@H](C2CCCC2)C(=O)N(C)[C@H](C(=O)N(C)C)CC(=O)N1C [PP2357],1.2 nM,–,59.7 nM,–,–,B (a compound having 3 or more and less than 10 is denoted as B),A (a compound having 10 or more and less than 20 is denoted as A),–
CCO[C@@H]1C[C@H]2C(=O)NC3(CCC3)C(=O)N(C)[C@@H](C3CCCC3)C(=O)N(C)[C@H](C(=O)N3CCOCC3)CC(=O)N(C)[C@@H](Cc3ccc(Cl)c(Cl)c3)C(=O)N[C@@H]([C@@H](C)CC)C(=O)N(C)CC(=O)N(C)[C@H]3CCCCCN(C3=O)[C@@H](Cc3ccc(F)cc3)C(=O)N(C)CC(=O)N[C@@H](CCc3cc(F)c(C(F)(F)F)c(F)c3)C(=O)N2C1 [PP1188],0.43 nM,–,33.5 nM,–,–,B (a compound having 3 or more and less than 10 is denoted as B),B (a compound having 3 or more and less than 10 is denoted as B),–
CCO[C@@H]1C[C@H]2C(=O)NC3(CC(C)(C)C3)C(=O)N(C)[C@@H](C3CCCC3)C(=O)N(C)[C@H](C(=O)N(CC)CC)CC(=O)N(C)[C@@H](COC)C(=O)N[C@@H]([C@@H](C)CC)C(=O)N(C)CC(=O)N(C)[C@H]3C/C=C\CCN(C3=O)[C@@H](Cc3ccc(C)cc3)C(=O)N(C)CC(=O)N[C@@H](CCc3ccc(C(F)(F)F)c(OC)c3)C(=O)N2C1 [PP2398],0.23 nM,–,11.4 nM,–,–,A (a compound having 10 or more and less than 20 is denoted as A),A (a compound having 10 or more and less than 20 is denoted as A),–

# The remaining compounds from weak to strong by IC50 [4], led by results:
"Kd ([2]; SPR, Single Cycle Kinetics)","Kd [2, 6]",IC50 [4],Structure (SMILES),HRAS/KRAS (ratio of KD value with respect to GDP-bound HRAS wild-type protein to KD value with respect to KRAS) [1],NRAS/KRAS (ratio of KD value with respect to GDP-bound NRAS wild-type protein to KD value with respect to KRAS) [3],"HRAS/KRAS (ratio of KD value for HRAS to KD value for KRAS) [1, 5]","NRAS/KRAS (ratio of KD value for NRAS to KD value for KRAS) [3, 7]",also measured
3.2 nM,–,234 nM,CCO[C@@H]1C[C@H]2C(=O)NC3(CCC3)C(=O)N(C)[C@@H](C3CCCC3)C(=O)N(CC)[C@H](C(=O)N3CCOCC3)CC(=O)N(C)[C@@H](CCC(F)F)C(=O)N[C@@H]([C@@H](C)CC)C(=O)N(C)CC(=O)N(C)[C@H]3CCCCCN(C3=O)[C@@H](Cc3ccc(C(F)(F)F)cc3)C(=O)N(C)CC(=O)N[C@@H](CCc3cc(F)c(C(F)(F)F)c(F)c3)C(=O)N2C1 [PP0948],–,–,A (a compound having 10 or more and less than 20 is denoted as A),A (a compound having 10 or more and less than 20 is denoted as A),–
–,–,216 nM,CCO[C@@H]1C[C@H]2C(=O)NC3(CCC3)C(=O)N(C)[C@@H](C3CCCC3)C(=O)N(C)[C@H](C(=O)N(C)C)CC(=O)N(C)[C@@H](CC3CC3)C(=O)N[C@@H]([C@@H](C)CC)C(=O)N(C)CC(=O)N(C)[C@H]3C/C=C\CCN(C3=O)[C@@H](Cc3ccc(F)cc3C)C(=O)N(C)CC(=O)N[C@@H](CCc3ccc(Cl)c(Cl)c3)C(=O)N2C1 [PP1476],–,–,–,–,"HRAS/KRAS (ratio of KD value for HRAS to KD value for KRAS) ([1]; SPR, GDP-bound HRAS wild-type protein vs GDP-bound KRAS wild-type protein, KD ratio class): B (a compound having 3 or more and less than 10 is denoted as B); Kd ([2]; SPR, Single Cycle Kinetics, 1:1 binding model): 1 nM; NRAS/KRAS (ratio of KD value for NRAS to KD value for KRAS) ([3]; SPR, GDP-bound NRAS wild-type protein vs GDP-bound KRAS wild-type protein, KD ratio class): A (a compound having 10 or more and less than 20 is denoted as A)"
–,4.1 nM,212 nM,CCC[C@H]1C(=O)N[C@@H](CC(C)C)C(=O)N2C[C@@H](OC)C[C@H]2C(=O)N(C)[C@H]2C/C=C\CCN(C2=O)[C@@H](Cc2ccc(C)cc2)C(=O)N(C)CC(=O)N[C@@H](CCc2ccc(C(F)(F)F)c(Cl)c2)C(=O)N2C[C@H](OCC)C[C@H]2C(=O)NC2(CC(C)(C)C2)C(=O)N(C)[C@@H](C2CCCC2)C(=O)N(C)[C@H](C(=O)N(C)C)CC(=O)N1C [PP2555],B (a compound having 3 or more and less than 10 is denoted as B),A (a compound having 10 or more and less than 20 is denoted as A),–,–,–
–,2.5 nM,208 nM,CCO[C@@H]1C[C@H]2C(=O)NC3(CCC3)C(=O)N(C)[C@@H](C3CCCC3)C(=O)N(CCc3ccccc3)[C@H](C(=O)N3CCOCC3)CC(=O)N(C)[C@@H](CC(C)C)C(=O)N[C@@H]([C@@H](C)CC)C(=O)N(C)CC(=O)N(C)[C@H]3CCCCN(C3=O)[C@@H](Cc3ccc(C(F)(F)F)cc3)C(=O)N(C)CC(=O)N[C@@H](CCc3cc(F)c(C(F)(F)F)c(F)c3)C(=O)N2C1 [PP0652],–,–,–,–,"HRAS/KRAS (ratio of KD value with respect to HRAS to KD value with respect to KRAS) [1, 5]: B (a compound having 3 or more and less than 10 is denoted as B); NRAS/KRAS (ratio of KD value with respect to NRAS to KD value with respect to KRAS) [3, 7]: B (a compound having 3 or more and less than 10 is denoted as B)"
–,0.28 nM,30.5 nM,CCC[C@H]1C(=O)N[C@H]([C@@H](C)CC)C(=O)N2C[C@@H](OC)C[C@H]2C(=O)N(C)[C@H]2C/C=C\CCN(C2=O)[C@@H](Cc2ccc(C)cc2)C(=O)N(C)CC(=O)N[C@@H](CCc2ccc(C(F)(F)F)c(Cl)c2)C(=O)N2C[C@H](OCC)C[C@H]2C(=O)NC2(CCC2)C(=O)N(C)[C@@H](C2CCCC2)C(=O)N(C)[C@H](C(=O)N(C)C)CC(=O)N1C (stereo in doubt) [PP2552],B (a compound having 3 or more and less than 10 is denoted as B),A (a compound having 10 or more and less than 20 is denoted as A),–,–,–
–,0.14 nM,7.7 nM,CCO[C@@H]1C[C@H]2C(=O)NC3(CC(C)(C)C3)C(=O)N(C)[C@@H](C(CC)CC)C(=O)N(C)[C@H](C(=O)N(C)C)CC(=O)N(C)[C@H]3CCC/C=C/c4ccc(cc4)C[C@@H](C(=O)N(C)CC(=O)N[C@@H](CCc4cc(F)c(C(F)(F)F)c(F)c4)C(=O)N2C1)N1CC/C=C\C[C@@H](C1=O)N(C)C(=O)CN(C1CC1)C(=O)[C@H]([C@@H](C)CC)NC3=O [PP2955],A (a compound having 10 or more and less than 20 is denoted as A),A (a compound having 10 or more and less than 20 is denoted as A),–,–,–
